Measured values: patent US20110009342A1, “USES OF PDCD5 POLYPEPTIDE FOR TUMOR CHEMOTHERAPY AND ORGAN PROTECTION” (priority 2008, published 2011)
Marks after values point to notes of the source that are not given here.

Legend:
Raji cells [1] = assay: colony-forming ability (CFA) assay, ADM; assay type: cell-based; settings: ADM 5 ng/mL alone; 14 days
Method: Analysis for colony forming ability (CFA): U937 cells (ATCC), in the logarithmic phase, were maintained in RPMI 1640 medium supplemented with 20% FBS and 0.4% methyl cellulose (Sigma) by the semi-solid colony culture method and were adjusted to a density of 5×10^3 cells/mL. The cells were divided into control groups and test groups, and each group was assayed in triple wells. U937 cells in the control groups were treated with DNR alone, with the final concentrations of 0 ng/mL and 0.5 ng/mL. U937 cells in the test group were treated with DNR of various concentrations combined with PDCD5 of various concentrations, while the final concentrations of PDCD5 were 0 μg/mL, 0.625 μg/mL, 1.25 μg/mL, and 2.5 μg/mL, respectively. After incubation for 14 days in a 37° C., 5% CO2 and saturatedly humidified incubator, a colony with more than 30 cells was counted by an inverted microscope in order to analyze colony forming ability of each group. […]
Methods: Colony-forming ability (CFA) assay: Raji cells of logarithmic growth phase were cultured, and the method was the same as that in Example 8. […] The numbers of colonies (containing≧30 cells) were counted by inverted microscope to observe the CFA, which is indicated by the ratio of average number of colony formation in each of the test groups versus that of the untreated control group.

K562 cells = assay: Annexin-V apoptosis by flow cytometry, Ara-C; assay type: cell-based; settings: Ara-C 0.1 μg/mL; PDCD5 60 μg/mL where combined; 48 hours
Method: Methods: Cell staining with FITC/Annexin-V and cell apoptosis detection in vitro by flow cytometry: K562 cells (ATCC) were maintained in RPMI 1640 (Life Technologies, USA) supplemented with 10% FBS (Hyclone, USA), and were plated in 24-well culture dishes to a density of 2×10^5 cells per well. rhPDCD5 protein was added in each well with a final concentration of 15 μg/mL, 30 μg/mL and 60 μg/mL, respectively. Chemotherapeutic drug Ara-C (Pharmacia, Italia) was then added with a final concentration of 0.1 μg/mL and RPMI 1640 medium supplemented with 10% FBS was added to bring the culture system to 1 mL. After incubation for 48 hours, the cells were stained with Annexin-V/PI (Biosea) and then were analyzed for apoptosis by flow cytometry.

U937 xenografts = assay: U937 nude mice xenograft model, DNR; assay type: in vivo, BALB/c nude mice
Method: Methods: U937 nude mice xenograft model: BALB/c nude mice (5-6 weeks of age) were pretreated with cyclophosphamide (100 mg/kg, injected intraperitoneally once a day for two consecutive days). On day 3, 1×10^7 (100 μl) of U937 cells were subcutaneously (s.c.) injected into a single flank of each of the mice. The treatments began on day 7 after inoculation when the average tumor diameter reached about 5 mm. The mice were divided randomly into four groups (n=6, i.e., six mice in each group) and treated with normal saline (NS), rhPDCD5 (40 μg, locally injected into the tumor), DNR (40 μg, intraperitoneal) or DNR (40 μg) plus rhPDCD5 (40 μg), once a day for 8 consecutive days.
Tumor volume (V) was determined every other day by vernier caliper measurements and calculated based on the equation of V=ab^2/2, where “a” refers to a long tumor diameter and “b” refers to a short diameter, then tumor volume growth curve was drawn. The percentage of reductions in tumor growth was calculated using the formula: [1-(Tf-Ti)/(Cf-Ci)]×100, where Tf and Ti are the final and initial mean tumor volumes, respectively, of the group receiving a specific treatment, and Cf and Ci are the final and initial mean tumor volumes, respectively, of the NS control group. After the treatment, tumors were collected and weighed and tissues were sectioned and processed by histological hematoxylin and eosin (H&E) staining. Results were statistically analyzed using SPSS 13.0. The measurements were expressed as the mean±standard deviation. Data were analyzed by the single-factor ANOVA and Student's t test and are presented as mean±standard deviation (SD). P<0.05 was considered statistically significant.

U937 cells [2] = assay: colony forming ability (CFA), DNR; assay type: cell-based; settings: DNR 0.5 ng/mL alone; 14 days
Method: (§1) Analysis for colony forming ability (CFA): U937 cells (ATCC), in the logarithmic phase, were maintained in RPMI 1640 medium supplemented with 20% FBS and 0.4% methyl cellulose (Sigma) by the semi-solid colony culture method and were adjusted to a density of 5×10^3 cells/mL. The cells were divided into control groups and test groups, and each group was assayed in triple wells. U937 cells in the control groups were treated with DNR alone, with the final concentrations of 0 ng/mL and 0.5 ng/mL. U937 cells in the test group were treated with DNR of various concentrations combined with PDCD5 of various concentrations, while the final concentrations of PDCD5 were 0 μg/mL, 0.625 μg/mL, 1.25 μg/mL, and 2.5 μg/mL, respectively. After incubation for 14 days in a 37° C., 5% CO2 and saturatedly humidified incubator, a colony with more than 30 cells was counted by an inverted microscope in order to analyze colony forming ability of each group. The colony forming ability was shown as the ratio of average number of colony in each group versus that of the untreated control group in which the final concentrations of DNR and PDCD5 were 0 μg/mL.

U937 cells [3] = assay: cell apoptosis assay, DNR; assay type: cell-based; settings: PDCD5 5 μg/mL where combined, 24 hours
Method: Methods: Cell apoptosis assay: U937 cells (ATCC), in the logarithmic phase, were maintained in RPMI 1640 (Life Technologies, USA) supplemented with 10% FBS (Hyclone, USA), and were adjusted to a density of 2×10^5 cells/mL and then were divided into control groups and test groups. U937 cells in the control groups were treated with DNR (Pharmacia Italia SPA) alone, with the final concentrations of 0 μg/mL, 0.05 μg/mL, and 0.1 μg/mL. U937 cells in the test groups were treated with DNR of various concentrations combined with PDCD5 of various concentrations, with the final concentrations of PDCD5 being 0 μg/mL, 2.5 μg/mL, and 5 μg/mL, respectively. After being incubated for 24 hours in a 37° C., 5% CO2 and saturatedly humidified incubator, the cells were stained with Annexin-V/PI (Biosea) and then were analyzed for apoptosis with a FACSCalibur flow cytometer.

Raji cells [4] = assay: FITC/Annexin-V apoptosis by flow cytometry, DNR; assay type: cell-based; settings: DNR 0.05 μg/mL; PDCD5 5 μg/mL where combined; 24 h
Method: Methods: Raji cells were cultured in RPMI 1640 medium (Life Technologies, USA) supplemented with 10% Fetal Bovine Serum (FBS, Hyclone, USA). The cells were seeded in 24-well plates with 2×10^5 cells per well. rhPDCD5 was added to each well and the final concentrations were 0 μg/mL, 2.5 μg/mL and 5 μg/mL, respectively. Subsequently, DNR was added and the final concentrations were 0 μg/mL and 0.05 μg/mL, and RPMI 1640 medium supplemented with 10% FBS was added to ensure the system was brought to 1 mL. After 24 h incubation, the cells were stained with FITC/Annexin-V (Beijing Biosea Biotechnology Co., Ltd.) and the apoptosis was detected by flow cytometry.

Jurkat cells = assay: FITC/Annexin-V apoptosis by flow cytometry, DNR; assay type: cell-based; settings: DNR 0.05 μg/mL; PDCD5 5 μg/mL where combined; 24 h
Method: Methods: The density of Jurkat cells were adjusted by RPMI 1640 medium (Life Technologies, USA) supplemented with 10% Fetal Bovine Serum (FBS, Hyclone, USA). […] Subsequently, DNR (Pharmacia Italia S.P.A) was added with its final concentration of 0.05 μg/mL, and RPMI 1640 medium supplemented with 10% FBS was added to ensure the system to be 1 mL. After 24h incubation, the sample was stained with FITC/Annexin-V (Beijing Biosea Biotechnology CO., LTD) and detected for apoptosis by flow cytometry.

mouse livers = assay: HE staining of liver paraffin sections of treated K562 xenograft mice; assay type: in vivo, BALB/c nu/nu mice; settings: no PDCD5; Imatinib 1.2 mg oral or IDR 25 μg i.p.; n=6
Method: (§2) Methods: BALB/c nu/nu female mice (6-8 weeks of age) were injected intraperitoneally with cyclophosphamide (CTX) (Jiangsu Hengrui Medicine Co., Ltd.), 2 mg/day per mouse for two days. One day after the second cyclophosphamide injection, 1.5×10^7 of K562 cells were injected subcutaneously into the single armpit of each of the mice. The mice bearing K562 cell xenografts were divided randomly into nine groups (n=6, i.e., six mice in each group) and each of the mice was i.p. treated, respectively, with normal saline, PDCD5, IDR (Sigma Corporation), and IDR plus PDCD5. […] At the end of the experiment, mice were killed. The mice were the same batch of that of Example 6. The excised liver of mice after treatment were fixed in 10% neutrally buffered formalin and then embedded in paraffin after dehydration. The paraffin embedding was cut and paraffin sections after HE staining were used to observe the necrosis of experimental mouse livers. Meanwhile, paraffin sections after Tunel (Roche Inc.) staining were used to observe the apoptosis of experimental mouse livers, and then the number of apoptotic cells was counted in five high-power microscope field for statistical analysis.

mice hearts = assay: HE staining of heart paraffin sections of treated K562 xenograft mice; assay type: in vivo, BALB/c nu/nu mice; settings: no PDCD5; Imatinib 1.2 mg oral or IDR 25 μg i.p.; n=6
Method: as §2, with “hearts” for “liver”, “myocardial congestion, hemorrhage, and myofiber degeneration” for “necrosis”, “heart” for “experimental mouse livers. Meanwhile, paraffin sections after Tunel (Roche Inc.) staining were used to observe the apoptosis of experimental mouse livers, and then the number of apoptotic cells was counted”, “mice.” for “five high-power microscope field for statistical analysis.”

HL60 cells = assay: colony-forming ability (CFA) assay, As2O3; assay type: cell-based; settings: As2O3 0.25 μg/mL alone; 14 days
Method: as §1
Colony-forming ability (CFA) assay: HL60 cells of logarithmic growth phase were cultured by a method identical to that in Example 8. The cells were divided into control and test groups (each with 3 wells): In the control groups, the HL60 cells were treated only with arsenic trioxide and the final concentration of which were 0 μg/mL and 0.25 μg/mL, respectively; in the test groups, the HL60 cells were treated with different concentrations of As2O3, which was combined with different concentrations of PDCD5, the final concentrations of PDCD5 were 0 μg/mL, 5 μg/mL, 10 μg/mL and 20 μg/mL, respectively. Cultures were incubated in a 37° C., 5% CO2 and saturatedly humidified incubator for 14 days. The numbers of colonies (containing≧30 cells) were counted on day 14 by inverted microscope. The colony-forming ability was observed as the ratio of the number of average colony formation in the test groups versus that in the untreated control group. […]

HL-60 cells = assay: cell apoptosis assay, As2O3; assay type: cell-based; settings: for rate of apoptosis: PDCD5 20 μg/mL where combined, 24 h
Method: Methods: Cell apoptosis assay: HL-60 cells (ATCC) of logarithmic growth phase were cultured and the density of cells was 2×10^5/mL. The cells were divided into control and test groups. In the control groups, the HL60 cells were treated only with As2O3 (Harbin Yida Pharmaceutical Co., Ltd.), and the final concentration of As2O3 were 0 μg/mL, 0.25 μg/mL and 0.5 μg/mL, respectively. In the test groups, the HL60 cells were treated with As2O3 in the various concentrations combined with PDCD5 in various concentrations, the final concentrations of PDCD5 being 0 μg/mL, 5 μg/mL, 10 μg/mL and 20 μg/mL, respectively. The cells were incubated in a 37° C., 5% CO2 and saturatedly humidified incubator for 24 h, and subsequently were stained with Annexin-V/PI and detected for apoptosis by flow cytometer.

COc1cccc2c1C(=O)c1c(O)c3c(c(O)c1C2=O)C[C@@](O)(C(=O)CO)C[C@@H]3O[C@H]1C[C@H](N)[C@H](O)[C@H](C)O1 [ADM, adriamycin]
CFA (ratio to untreated control) (Raji cells [1]): 32%

Nc1ccn([C@@H]2O[C@H](CO)[C@@H](O)[C@@H]2O)c(=O)n1 [Ara-C, arabinoside]
apoptosis rate (K562 cells): 34.87%

COc1cccc2c1C(=O)c1c(O)c3c(c(O)c1C2=O)C[C@@](O)(C(C)=O)C[C@@H]3O[C@H]1C[C@H](N)[C@H](O)[C@H](C)O1 [DNR, Daunorubicin]
average tumor weight (U937 xenografts; after the treatment, DNR 40 μg, PDCD5 40 μg where combined): 0.45 ± 0.15 g | inhibition of tumor growth (percentage of inhibition on tumor sizes vs control group) (U937 xenografts; day 15, DNR 40 μg, rhPDCD5 40 μg where combined): 31.97% | Average size of tumors (mean ± SD) (U937 xenografts; fifteenth day, rhPDCD5 40 μg into the tumor, DNR 40 μg intraperitoneal, once a day for 8 days): 410.27 ± 154.93* mm^3 | CFA (ratio to untreated control) (U937 cells [2]): 79% | rate of apoptosis (U937 cells [3]; high-dose DNR 0.1 μg/mL): 23.01% | rate of apoptosis (U937 cells [3]; low-dose DNR 0.05 μg/mL): 21.23% | rate of apoptosis (Raji cells [4]): 17.46% | rate of apoptosis (Jurkat cells): 27.01%

Cc1ccc(NC(=O)c2ccc(CN3CCN(C)CC3)cc2)cc1Nc1nccc(-c2cccnc2)n1 [Imatinib]
Sinusoidal expansion, congestive hemorrhage and necrosis of liver cells surrounding sinusoid: mice graded + (mouse livers): 2 number of mice | Sinusoidal expansion, congestive hemorrhage and necrosis of liver cells surrounding sinusoid: mice graded ++ (mouse livers): 0 number of mice | Sinusoidal expansion, congestive hemorrhage and necrosis of liver cells surrounding sinusoid: mice graded +/− (mouse livers): 0 number of mice | Sinusoidal expansion, congestive hemorrhage and necrosis of liver cells surrounding sinusoid: mice graded − (mouse livers): 4 number of mice | Myocardial hemorrhage and congestion: mice graded + (mice hearts): 1 number of mice | Myocardial hemorrhage and congestion: mice graded ++ (mice hearts): 1 number of mice | Myocardial hemorrhage and congestion: mice graded − (mice hearts): 4 number of mice | Myofiber degeneration: mice graded + (mice hearts): 0 number of mice | Myofiber degeneration: mice graded − (mice hearts): 6 number of mice

arsenious acid [As2O3]
CFA (ratio to untreated control) (HL60 cells): 52% | enhancement of induced apoptosis (HL-60 cells): can enhance PDCD5-induced apoptosis | rate of apoptosis (HL-60 cells; high-dose As2O3 0.5 μg/mL): 78.02% | rate of apoptosis (HL-60 cells; low-dose As2O3 0.25 μg/mL): 21.23%
